Assay results reported in ChEMBL document CHEMBL2439947, “Intermolecular interaction of voriconazole analogues with model membrane by DSC and NMR, and their antifungal activity using NMR based metabolic profiling” (2013).
≈ marks a conversion by molar mass, not a printed value. Calls of active or inactive are those of the source. No cut-off for these calls is given here.

What was measured:
Candida albicans [1] = assay: Antifungal activity against Candida albicans ATCC 10231 assessed as ethanol level after 32 hrs by [1H] NMR spectroscopic analysis; assay type: functional
Candida albicans [2] = assay: Antifungal activity against Candida albicans ATCC 10231 assessed as pyruvate level after 24 hrs by [1H] NMR spectroscopic analysis; assay type: functional
Candida albicans [3] = assay: Antifungal activity against Candida albicans ATCC 10231 assessed as ethanol level after 24 hrs by [1H] NMR spectroscopic analysis; assay type: functional
Candida albicans [4] = assay: Antifungal activity against Candida albicans ATCC 10231 assessed as ethanol level after 18 hrs by [1H] NMR spectroscopic analysis; assay type: functional
Candida albicans [5] = assay: Antifungal activity against Candida albicans ATCC 10231 after 48 hrs by tube dilution method; assay type: functional; conditions: ATCC 10231, 48 h
Lipid bilayer [6] = assay: Binding affinity to DPPC liposomes assessed as melting temperature at 1:2 drug to DPPC liposome molar ratio by differential scanning calorimetric analysis
Lipid bilayer [7] = assay: Binding affinity to DPPC liposomes at 1:2 to 1:10 drug to DPPC liposome molar ratio by [31P] NMR spectroscopic analysis
Lipid bilayer [8] = assay: Binding affinity to DPPC liposomes at 1:5 drug to DPPC liposome molar ratio by [13C] NMR spectroscopic analysis
Candida albicans [9] = assay: Antifungal activity against Candida albicans ATCC 10231 assessed as acetate level after 24 hrs by [1H] NMR spectroscopic analysis; assay type: functional
Candida albicans [10] = assay: Antifungal activity against Candida albicans ATCC 10231 assessed as pyruvate level after 18 hrs by [1H] NMR spectroscopic analysis; assay type: functional
Candida albicans [11] = assay: Antifungal activity against Candida albicans ATCC 10231 after 24 hrs by broth microdilution method; assay type: functional; conditions: ATCC 10231, 24 h
Candida albicans [12] = assay: Antifungal activity against Candida albicans ATCC 10231 assessed as pyruvate level after 32 hrs by [1H] NMR spectroscopic analysis; assay type: functional
Candida albicans [13] = assay: Antifungal activity against Candida albicans ATCC 10231 assessed as acetate level after 18 hrs by [1H] NMR spectroscopic analysis; assay type: functional
Lipid bilayer [14] = assay: Binding affinity to DPPC liposomes assessed as change in pre-transition temperature at 1:5 drug to DPPC liposome molar ratio by differential scanning calorimetric analysis
Lipid bilayer [15] = assay: Binding affinity to DPPC liposomes assessed as change in pre-transition temperature at 1:2 drug to DPPC liposome molar ratio by differential scanning calorimetric analysis
Lipid bilayer [16] = assay: Binding affinity to DPPC liposomes by 2D-NOESY spectroscopic analysis
Lipid bilayer [17] = assay: Binding affinity to DPPC liposomes assessed as melting temperature at 1:5 drug to DPPC liposome molar ratio by differential scanning calorimetric analysis
Lipid bilayer [18] = assay: Binding affinity to DPPC liposomes at 1:5 drug to DPPC liposome molar ratio by [1H] NMR spectroscopic analysis
Lipid bilayer [19] = assay: Binding affinity to DPPC liposomes assessed as melting temperature at 1:10 drug to DPPC liposome molar ratio by differential scanning calorimetric analysis
Lipid bilayer [20] = assay: Binding affinity to DPPC liposomes assessed as change in pre-transition temperature at 1:10 drug to DPPC liposome molar ratio by differential scanning calorimetric analysis
Lipid bilayer [21] = assay: Binding affinity to DPPC liposomes after 2 hrs by double reciprocal plot analysis
Candida albicans [22] = assay: Antifungal activity against Candida albicans ATCC 10231 assessed as acetate level after 32 hrs by [1H] NMR spectroscopic analysis; assay type: functional
Lipid bilayer [23] = assay: Binding affinity to DPPC liposomes after 2 hrs by spectrophotometric analysis relative to control

SMILES | Activity (Candida albicans [1]) | Activity (Candida albicans [2]) | Activity (Candida albicans [3]) | Activity (Candida albicans [4]) | MIC (Candida albicans [5]) | Tm (Lipid bilayer [6]) | Activity (Lipid bilayer [7]) | Activity (Lipid bilayer [8]) | Activity (Candida albicans [9]) | Activity (Candida albicans [10]) | MIC (Candida albicans [11]) | Activity (Candida albicans [12]) | Activity (Candida albicans [13]) | Activity (Lipid bilayer [14]) | Activity (Lipid bilayer [15]) | Activity (Lipid bilayer [16]) | Tm (Lipid bilayer [17]) | Activity (Lipid bilayer [18]) | Tm (Lipid bilayer [19]) | Kapp (Lipid bilayer [21]) | also measured
C[C@@H](c1ncncc1F)[C@@](Cn1cncn1)(OC(=O)c1ccccc1)c1ccc(F)cc1F [VORICONAZOLE BENZOATE] | 4 µg/mL | 3 µg/mL | 4 µg/mL | 5 µg/mL | 4 µg/mL (≈ 8.82 µM) | 39.5 °C | Active | Active | 4 µg/mL | 4 µg/mL | 4 µg/mL (≈ 8.82 µM) | 3 µg/mL | 6 µg/mL | Active | Active | Active | 39.5 °C | Active | 40.9 °C | 1.22 M⁻¹ | T (Lipid bilayer [20]): 30.1 °C; Activity (Candida albicans [22]): 4 µg/mL
COc1ccc(C(=O)O[C@@](Cn2cncn2)(c2ccc(F)cc2F)[C@@H](C)c2ncncc2F)cc1 [VORICONAZOLE P-METHOXY BENZOATE] | 2 µg/mL | 1 µg/mL | 3 µg/mL | 3 µg/mL | 3 µg/mL (≈ 6.21 µM) | 38.3 °C | Active | Active | 3 µg/mL | 2 µg/mL | 3 µg/mL (≈ 6.21 µM) | 1 µg/mL | 4 µg/mL | Active | Active | Active | 39.1 °C | Active | 39.2 °C | 1.16 M⁻¹ | Activity (Lipid bilayer [23]): 50%; Activity (Lipid bilayer [20]): Active; Activity (Candida albicans [22]): 2 µg/mL
C[C@@H](c1ncncc1F)[C@@](Cn1cncn1)(OC(=O)c1ccc([N+](=O)[O-])cc1)c1ccc(F)cc1F [VORICONAZOLE P-NITRO BENZOATE] | 7 µg/mL | 5 µg/mL | 7 µg/mL | 8 µg/mL | 8 µg/mL (≈ 16.1 µM) | 59.6 °C | Active | Active | 7 µg/mL | 5 µg/mL | 7 µg/mL (≈ 14 µM) | 5 µg/mL | 8 µg/mL | Active | Active | Active | 60 °C | Active | 60 °C | 0.505 M⁻¹ | Activity (Lipid bilayer [20]): Active; Activity (Candida albicans [22]): 6 µg/mL
Cc1ccc(C(=O)O[C@@](Cn2cncn2)(c2ccc(F)cc2F)[C@@H](C)c2ncncc2F)cc1 [VORICONAZOLE TOLUATE] | 4 µg/mL | 3 µg/mL | 5 µg/mL | 5 µg/mL | 5 µg/mL (≈ 10.7 µM) | 32.4 °C | Active | Active | 6 µg/mL | 4 µg/mL | 5 µg/mL (≈ 10.7 µM) | 3 µg/mL | 6 µg/mL | Active | Active | Active | 32.6 °C | Active | 34 °C | 0.871 M⁻¹ | Activity (Lipid bilayer [20]): Active; Activity (Candida albicans [22]): 5 µg/mL
C[C@@H](c1ncncc1F)[C@](O)(Cn1cncn1)c1ccc(F)cc1F [VORICONAZOLE] | 1 µg/mL | 1 µg/mL | 1 µg/mL | 2 µg/mL | 1 µg/mL (≈ 2.86 µM) | 37.4 °C | inactive | Active | 2 µg/mL | 1 µg/mL | 1 µg/mL (≈ 2.86 µM) | 1 µg/mL | 3 µg/mL | Active | Active | Active | 38.5 °C | Active | 38.5 °C | 0.0543 M⁻¹ | Activity (Lipid bilayer [20]): Active; Activity (Candida albicans [22]): 2 µg/mL
